The values that follow come from patent publication US11124518B2, “L,2-dihydro-3H-pyrazolo[3,4-D]pyrimidin-3-one analogs” (Recurium IP Holdings, LLC, priority 2017, dated 2021).

Counter-ions that a name gives are not always drawn.

Experiment [1] has as its target Wee1 kinase (Homo sapiens (Human), UniProt P30291). Briefly: Wee1 Binding Assay (FRET). The settings on record: Wee1 kinase 2 nM, tracer 178 50 nM, 60 min at RT, read-out: Wee1 Enzymatic IC50. Here is the method: Wee 1 kinase was determined by using Flurorescence Resonance Energy Transfer (FRET) assay. […] The plate was shaken for 30 seconds, incubated for 60 min at RT, and recorded on fluorescence plate reader.

In experiment [2] the test system is H23 cells. The experiment in a line: H23 Cellular Proliferation Assay (CellTiter-Glo). The following applies: Homo sapiens, NCI-H23, 96 h, 4 days. The class given is cell-based. As for the experimental part:
Cells were treated with compounds diluted in DMSO and a 9 point 5-fold serial dilutions. Plates were placed in 37° C., 5% CO2 to incubate for 4 days. Before they were developed by adding 100 μL of CellTiter-Glo reagent (Promega) to the assay plate, plates were shaken briefly for 2 mins and allowed to incubate at RT for 10 mins. The plates are read with a M5e plate reader according to CellTiter-Glo protocol. The GraphPad Prism software was used to get IC50 values. The bottom of the plates was pasted with white back seal and luminescence was recorded with Enspire or Envision.
(In ATP-based viability assays light output follows the ATP content of the culture.)

Experiment [3] concerns SW480 cells. Briefly: SW480 Cellular Proliferation Assay (CellTiter-Glo). The class given is cell-based. The following applies: Homo sapiens, 96 h, 4 days. Here is the method:
Cells were treated with compounds diluted in DMSO and a 10 point 3-fold serial dilutions. Plates were placed in 37° C., 5% CO2 for to incubate for 4 days. Before they were developed by adding 100 μL of CellTiter-Glo reagent (Promega) to the assay plate, plates were shaken briefly for 2 mins and allowed to incubate at RT for 60 mins. The bottom of the plates was pasted with white back seal and luminescence was recorded with Enspire or Envision.

Wee1 kinase, sequence (P30291 whole entry): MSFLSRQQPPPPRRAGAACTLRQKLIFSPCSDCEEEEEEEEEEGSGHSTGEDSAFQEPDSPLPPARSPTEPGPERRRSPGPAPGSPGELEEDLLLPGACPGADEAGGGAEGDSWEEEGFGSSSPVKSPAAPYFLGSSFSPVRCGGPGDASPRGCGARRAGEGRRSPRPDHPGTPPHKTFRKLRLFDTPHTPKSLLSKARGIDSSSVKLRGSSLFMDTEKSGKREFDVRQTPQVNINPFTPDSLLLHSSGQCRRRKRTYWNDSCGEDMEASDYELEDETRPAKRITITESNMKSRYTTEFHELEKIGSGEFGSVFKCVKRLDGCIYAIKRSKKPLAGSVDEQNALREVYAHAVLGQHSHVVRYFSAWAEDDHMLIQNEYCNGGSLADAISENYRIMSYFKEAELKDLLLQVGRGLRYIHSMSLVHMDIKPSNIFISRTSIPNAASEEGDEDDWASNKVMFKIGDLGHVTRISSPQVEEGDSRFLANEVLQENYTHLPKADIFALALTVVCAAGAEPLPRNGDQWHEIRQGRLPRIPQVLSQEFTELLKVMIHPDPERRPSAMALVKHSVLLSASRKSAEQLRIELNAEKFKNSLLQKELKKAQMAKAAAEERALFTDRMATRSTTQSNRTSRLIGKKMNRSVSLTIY

On to `C=CCn1c(=O)c2cnc(Nc3ccc4c(c3)CNCC4(F)F)nc2n1-c1cccc(C(C)(C)O)n1` [Example 28, 2-Allyl-6-((4,4-difluoro-1,2,3,4-tetrahydroisoquinolin-7-yl)amino)-1-(6-(2-hydroxypropan-2-yl)pyridin-2-yl)-1,2-dihydro-3H-pyrazolo[3,4-d]pyrimidin-3-one hydrogen chloride], for which the IC50 (as a rule, the midpoint of a concentration-inhibition curve) was < 10 nM in experiment [1] and 100 to 1000 nM in experiment [2].
Taken in the same sequence, the figures for `C=CCn1c(=O)c2cnc(Nc3ccc4c(c3)CCN(C3COC3)C4)nc2n1-c1cccc(C(C)(C)O)n1` [Example 18, 2-Allyl-1-(6-(2-hydroxypropan-2-yl)pyridin-2-yl)-6-((2-(oxetan-3-yl)-1,2,3,4-tetrahydroisoquinolin-6-yl)amino)-1,2-dihydro-3H-pyrazolo[3,4-d]pyrimidin-3-one] were < 10 nM and 100 to 1000 nM.
`C=CCn1c(=O)c2cnc(Nc3ccc4c(n3)CCN(C)C4)nc2n1-c1cccc(C(C)(C)O)n1` [Example 26, 2-Allyl-1-(6-(2-hydroxypropan-2-yl)pyridin-2-yl)-6-((6-methyl-5,6,7,8-tetrahydro-1,6-naphthyridin-2-yl)amino)-1,2-dihydro-3H-pyrazolo[3,4-d]pyrimidin-3-one]: in experiment [1], the IC50 was in the range of 10 to 100 nM.
Turning to `C=CCn1c(=O)c2cnc(Nc3ccc4c(c3)CN(C)CC43CC3)nc2n1-c1cccc(C(C)(C)O)n1` [Example 1, 2-Allyl-1-(6-(2-hydroxypropan-2-yl)pyridin-2-yl)-6-((2′-methyl-2′,3′-dihydro-1′H-spiro-[cyclopropane-1,4′-isoquinolin]-7′-yl)amino)-1,2-dihydro-3H-pyrazolo[3,4-d]pyrimidin-3-one], the IC50 in experiment [3] was 100 to 1000 nM; in experiment [2] it was < 100 nM.
For the compound `C=CCn1c(=O)c2cnc(Nc3ccc4c(c3)CN(C(C)=O)CC4)nc2n1-c1cccc(C(C)(C)O)n1` [Example 8, 6-((2-Acetyl-1,2,3,4-tetrahydroisoquinolin-7-yl)amino)-2-allyl-1-(6-(2-hydroxypropan-2-yl)pyridin-2-yl)-1,2-dihydro-3H-pyrazolo[3,4-d]pyrimidin-3-one], the IC50 in experiment [1] was < 10 nM; in experiment [3], 100 to 1000 nM; in experiment [2] it was > 1000 nM.
As for `C=CCn1c(=O)c2cnc(Nc3cnc4c(c3)CN(C)CC4)nc2n1-c1cccc(C(C)(C)O)n1` [Example 25, 2-Allyl-1-(6-(2-hydroxypropan-2-yl)pyridin-2-yl)-6-((6-methyl-5,6,7,8-tetrahydro-1,6-naphthyridin-3-yl)amino)-1,2-dihydro-3H-pyrazolo[3,4-d]pyrimidin-3-one], in experiment [1], the 50% inhibitory concentration (IC50) is < 10 nM.
In the case of `C=CCn1c(=O)c2cnc(Nc3ccc4c(c3)[C@@H](C)NCC4(C)C)nc2n1-c1cccc(C(C)(C)O)n1` (single isomer, unassigned) [Example 29], the results for the IC50 in experiment [1] and in experiment [2] were < 10 nM and 100 to 1000 nM, respectively.
With `C=CCn1c(=O)c2cnc(Nc3ccc4c(c3)C(=O)NCC4)nc2n1-c1cccc(C(C)(C)O)n1` [Example 19, 7-((2-Allyl-1-(6-(2-hydroxypropan-2-yl)pyridin-2-yl)-3-oxo-2,3-dihydro-1H-pyrazolo[3,4-d]pyrimidin-6-yl)amino)-3,4-dihydroisoquinolin-1(2H)-one], the IC50 in experiment [1] was < 10 nM; in experiment [3] it was > 1000 nM; in experiment [2], > 1000 nM.
For `C=CCn1c(=O)c2cnc(Nc3ccc4c(c3)CN(CCO)CC4)nc2n1-c1cccc(C(C)(C)O)n1` [Example 13, 2-Allyl-6-((2-(2-hydroxyethyl)-1,2,3,4-tetrahydroisoquinolin-7-yl)amino)-1-(6-(2-hydroxypropan-2-yl)pyridin-2-yl)-1,2-dihydro-3H-pyrazolo[3,4-d]pyrimidin-3-one hydrochloride], the IC50 in experiment [1] was < 10 nM; in experiment [3], > 1000 nM; in experiment [2], 100 to 1000 nM.
Consider `C=CCn1c(=O)c2cnc(Nc3ccc4c(c3)CNC4)nc2n1-c1cccc(C(C)(C)O)n1` [Example 21, 2-Allyl-1-(6-(2-hydroxypropan-2-yl)pyridin-2-yl)-6-(isoindolin-5-ylamino)-1,2-dihydro-3H-pyrazolo[3,4-d]pyrimidin-3-one hydrogen chloride], for which the IC50 in experiment [1] is < 10 nM; in experiment [2] it was 100 to 1000 nM.
As for `C=CCn1c(=O)c2cnc(Nc3ccc4c(c3)CN(S(C)(=O)=O)CC4)nc2n1-c1cccc(C(C)(C)O)n1` [Example 9, 2-Allyl-1-(6-(2-hydroxypropan-2-yl)pyridin-2-yl)-6-((2-(methylsulfonyl)-1,2,3,4-tetrahydroisoquinolin-7-yl)amino)-1,2-dihydro-3H-pyrazolo[3,4-d]pyrimidin-3-one], the IC50 in experiment [1] was < 10 nM; in experiment [3] it was 100 to 1000 nM.
Consider `C=CCn1c(=O)c2cnc(Nc3ccc4c(c3)CN(CC)CC4)nc2n1-c1cccc(C(C)(C)O)n1` [Example 7, 2-Allyl-6-((2-ethyl-1,2,3,4-tetrahydroisoquinolin-7-yl)amino)-1-(6-(2-hydroxypropan-2-yl)pyridin-2-yl)-1,2-dihydro-3H-pyrazolo[3,4-d]pyrimidin-3-one], for which the values for the IC50 in experiment [1] and in experiment [2] were < 10 nM and 100 to 1000 nM, respectively.
Turning to `C=CCn1c(=O)c2cnc(Nc3ccc4c(c3)CN(C(C)=O)CC43CC3)nc2n1-c1cccc(C(C)(C)O)n1` [Example 4, 6-((2′-Acetyl-2′,3′-dihydro-1′H-spiro[cyclopropane-1,4′-isoquinolin]-7′-yl)amino)-2-allyl-1-(6-(2-hydroxypropan-2-yl)pyridin-2-yl)-1,2-dihydro-3H-pyrazolo[3,4-d]pyrimidin-3-one], in experiment [1], the IC50 was < 10 nM.
In turn, `C=CCn1c(=O)c2cnc(Nc3ccc4c(c3)CN(C3COC3)CC4)nc2n1-c1cccc(C(C)(C)O)n1` [Example 14, 2-Allyl-1-(6-(2-hydroxypropan-2-yl)pyridin-2-yl)-6-((2-(oxetan-3-yl)-1,2,3,4-tetrahydroisoquinolin-7-yl)amino)-1,2-dihydro-3H-pyrazolo[3,4-d]pyrimidin-3-one] yielded an IC50 in experiment [2] of 100 to 1000 nM.
Turning to `C=CCn1c(=O)c2cnc(Nc3ccc4c(c3)CN(C(C)C)CC43CC3)nc2n1-c1cccc(C(C)(C)O)n1` [Example 3, 2-Allyl-1-(6-(2-hydroxypropan-2-yl)pyridin-2-yl)-6-((2′-isopropyl-2′,3′-dihydro-1′H-spiro[cyclopropane-1,4′-isoquinolin]-7′-yl)amino)-1,2-dihydro-3H-pyrazolo[3,4-d]pyrimidin-3-one], the IC50 in experiment [1] was < 10 nM.
Take `C=CCn1c(=O)c2cnc(Nc3ccc4c(c3)CN(C)CC4(F)F)nc2n1-c1cccc(C(C)(C)O)n1` [Example 27, 2-Allyl-6-((4,4-difluoro-2-methyl-1,2,3,4-tetrahydroisoquinolin-7-yl)amino)-1-(6-(2-hydroxypropan-2-yl)pyridin-2-yl)-1,2-dihydro-3H-pyrazolo[3,4-d]pyrimidin-3-one]: the IC50 in experiment [2] was > 1000 nM.
With `C=CCn1c(=O)c2cnc(Nc3ccc4c(n3)CN(C)CC4)nc2n1-c1cccc(C(C)(C)O)n1` [Example 24, 2-Allyl-1-(6-(2-hydroxypropan-2-yl)pyridin-2-yl)-6-((7-methyl-5,6,7,8-tetrahydro-1,7-naphthyridin-2-yl)amino)-1,2-dihydro-3H-pyrazolo[3,4-d]pyrimidin-3-one], the IC50 in experiment [1] was 10 to 100 nM.
With `C=CCn1c(=O)c2cnc(Nc3ccc4c(c3)CN(C)C4)nc2n1-c1cccc(C(C)(C)O)n1` [Example 23, 2-Allyl-1-(6-(2-hydroxypropan-2-yl)pyridin-2-yl)-6-((2-methylisoindolin-5-yl)amino)-1,2-dihydro-3H-pyrazolo[3,4-d]pyrimidin-3-one], the figures for the IC50 in experiment [1] and in experiment [2] were < 10 nM and 100 to 1000 nM, respectively.
Taken in the same sequence, the figures for `C=CCn1c(=O)c2cnc(Nc3ccc4c(c3)[C@H](C)NCC4(C)C)nc2n1-c1cccc(C(C)(C)O)n1` (single isomer, unassigned) [Example 30] were < 10 nM and < 100 nM.
In the case of `C=CCn1c(=O)c2cnc(Nc3ccc4c(c3)CN(C(C)C)CC4)nc2n1-c1cccc(C(C)(C)O)n1` [Example 10, 2-Allyl-1-(6-(2-hydroxypropan-2-yl)pyridin-2-yl)-6-((2-isopropyl-1,2,3,4-tetrahydroisoquinolin-7-yl)amino)-1,2-dihydro-3H-pyrazolo[3,4-d]pyrimidin-3-one], the IC50 in experiment [1] is < 10 nM.
For the compound `C=CCn1c(=O)c2cnc(Nc3ccc(N4CCN(C)CC4)cc3)nc2n1-c1cccc(C(C)(C)O)n1` [AZD1775, 2-allyl-1-(6-(2-hydroxypropan-2-yl)pyridin-2-yl)-6-(4-(4-methylpiperazin-1-yl)phenylamino)-1,2-dihydropyrazolo[3,4-d]pyrimidin-3-one, reference compound], the IC50 in experiment [3] and in experiment [2] was 100 to 1000 nM throughout.
In experiment [2], `C=CCn1c(=O)c2cnc(Nc3ccc4c(c3)CCN(CCO)C4)nc2n1-c1cccc(C(C)(C)O)n1` [Example 17, 2-Allyl-6-((2-(2-hydroxyethyl)-1,2,3,4-tetrahydroisoquinolin-6-yl)amino)-1-(6-(2-hydroxypropan-2-yl)pyridin-2-yl)-1,2-dihydro-3H-pyrazolo[3,4-d]pyrimidin-3-one hydrogen chloride] gave an IC50 of 100 to 1000 nM.
